Test results published in US20190029989A1, “BOWEL CARE USING IONTOPHORESIS” (priority 2016, published 2019).

Tests used:
Type in all cases: in vivo, human
Persons with SCI [1] = assay: Heart rate and blood pressure monitoring after IV bolus (Example 3); settings: IV bolus 2 mg neostigmine alone or with 0.4 mg glycopyrrolate
Protocol: (§1) Thirteen (13) persons with SCI (5 quadriplegics, 8 paraplegics) with a mean age of 46 years (range 25-69) and mean duration of injury of 16 years (range 1-31) were treated. None of the subjects had known heart disease and/or history of arrhythmias.
(§2) On separate days, subjects were given by IV bolus either (i) 2 mg neostigmine alone, (ii) a combination of 2 mg neostigmine and 0.4 mg glycopyrrolate, or (iii) normal saline. Subjects were blinded to the type of infusion being delivered. The effect of these infusions on bowel evacuation was assessed semi-quantitatively on a scale of 0 (no evacuation) to 4+(complete evacuation) using video fluoroscopy after rectal instillation of a barium-oatmeal paste having a consistency similar to that of stool. Blood pressure, heart rate and other vital signs were monitored in each subject. In addition, airway resistances were determined in each subject using the forced oscillation technique (as described, for example, in Goldman, Pulm. Pharmacol. Ther., 14(5):341-350, 2001). Total airway resistance was determined using 5 Hz forced oscillations, and central airway resistance was determined using 20 Hz forced oscillations.

Persons with SCI [2] = assay: Bowel evacuation score by video fluoroscopy after IV bolus in thirteen subjects (Example 3); settings: IV bolus 2 mg neostigmine alone or with 0.4 mg glycopyrrolate
Protocol: as §1, §2
This response received a 0 (zero) bowel evacuation score. FIGS. 1B-1E show progressively increasing bowel evacuation responses in different subjects. The responses in FIGS. 1B-1E correspond to bowel evacuation scores of 1+, 2+, 3+, and 4+, respectively.

Persons with SCI [3] = assay: Airway resistance by forced oscillation technique after IV bolus (Example 3); settings: IV bolus 2 mg neostigmine
Protocol: as §1, §2

CN(C)C(=O)Oc1cccc([N+](C)(C)C)c1 [neostigmine]
change in blood pressure (Persons with SCI [1]): No change | mean lowest heart rate measured (Persons with SCI [1]; p=0.02): about 49 BMP | subjects with prompt and complete evacuation (Persons with SCI [2]): 57% | time of evacuation post infusion (mean) (Persons with SCI [2]): 11 min | mean bowel evacuation score (Persons with SCI [2]; scale 0 (no evacuation) to 4+ (complete evacuation), thirteen subjects): about 2.29 | total airway resistance, increase over baseline (Persons with SCI [3]; 5 Hz forced oscillations): approximately 25.5% | central airway resistance, increase over baseline (Persons with SCI [3]; 20 Hz forced oscillations): approximately 18.4%
